Laboratory results from paper PMC7830757, “An Anti-Inflammatory 2,4-Cyclized-3,4-Secospongian Diterpenoid and Furanoterpene-Related Metabolites of a Marine Sponge Spongia sp. from the Red Sea” (Marine Drugs, 2021).
Where two headings read alike, the source gives them in different places.

How the values were obtained:
[1] = system: fMLF/CB-induced human neutrophils (superoxide anion generation); assay: Superoxide anion generation in fMLF/CB-induced human neutrophils; assay type: cell-based; details: Neutrophil; for inhibition at 10 µM: Homo sapiens, percentage of inhibition at 10 μM, read-out: Superoxide Anion Inh %; for IC50: fMLF/CB-induced human neutrophils
Procedure: (§1) Human neutrophils were isolated from the blood of healthy adult volunteers and enriched by using dextran sedimentation, Ficoll–Hypaque gradient centrifugation, and hypotonic lysis, as described previously. Then, neutrophils were incubated in Ca^2+-free HBSS buffer (pH 7.4, ice-cold).
Neutrophils (6 × 10^5 cells/mL) incubated (with 0.6 mg/mL ferricytochrome c and 1 mM Ca^2+) in HBSS at 37 °C were treated with DMSO (as control) or tested compound for 5 min. Neutrophils were primed by 1 μg/mL cytochalasin B (CB) for 3 min before being activated by 100 nM fMLF for 10 min. The change of superoxide anion generation was spectrophotomically measured at 550 nm (U-3010, Hitachi, Tokyo, Japan). LY294002 [2-(4-morpholinyl)-8-phenyl-1(4H)-benzopyran- 4-one] was used as a positive control.

[2] = system: fMLF/CB-induced human neutrophils (elastase release); assay: Elastase release in fMLF/CB-induced human neutrophils; assay type: cell-based; details: Neutrophil; for inhibition at 10 µM: Homo sapiens, percentage of inhibition at 10 μM, read-out: Elastase Inh %; for IC50: fMLF/CB-induced human neutrophils
Procedure: as §1
Neutrophils (6 × 10^5 cells/mL) incubated (with 100 μM MeO-Suc-Ala-Ala-Pro-Val-p- nitroanilide and 1 mM Ca^2+) in HBSS at 37 °C were treated with DMSO or the tested compound for 5 min. Neutrophils were, then, activated with fMLF (100 nM)/CB (0.5 μg/mL) for 10 min. The change of elastase release was spectrophotomically measured at 405 nm (U-3010, Hitachi, Tokyo, Japan).

[3] = dash per footnote b, read-out: Superoxide Anion IC50 (dash class)
[4] = dash per footnote b, read-out: Elastase IC50 (dash class)
[5] = mean ± SEM (n ≥ 3), read-out: Superoxide Anion IC50
[6] = mean ± SEM (n ≥ 3), read-out: Elastase IC50

Structure (SMILES) | IC50 [1, 3] | IC50 [2, 4] | IC50 [1, 5] | IC50 [2, 6] | inhibition at 10 µM ([1]; mean ± SEM (n ≥ 3)) | inhibition at 10 µM ([2]; mean ± SEM (n ≥ 3))
C/C(=C\CCc1ccoc1)CCC(=O)O [Compound 2, (E)-7-(furan-3-yl)-4-methylhept-4-enoic acid] | > 10 µM | > 10 µM | – | – | 3.47% | 14%
C/C(=C\CC(=O)NO)CCCc1ccoc1 [Compound 3, spongiafuranohydroxamic acid A] | > 10 µM | > 10 µM | – | – | 8.85% | 18%
C/C(=C\CCc1ccoc1)CCC(=O)N[C@H]1CCOC1=O [Compound 5, (−)-sponalisolide B] | – | > 10 µM | 5.31 µM | – | 67.1% | 35.2%
CC(=CCCc1ccoc1)CCC=C(C)CCC(O)C1(C)CCC(=O)O1 (stereo not drawn) [Compound 4, 16-epi-irciformonin G] | > 10 µM | > 10 µM | – | – | 2.61% | -1.07%
CC(C)CCC[C@@H](C)[C@H]1CC[C@H]2C3=CC(=O)[C@@]4(O)C[C@@H](O)CC[C@]4(C)[C@H]3CC[C@]12C [Compound 7, cholesta-7-ene-3β,5α-diol-6-one] | > 10 µM | > 10 µM | – | – | 12.8% | 25.9%

Continued, in another order:

IC50 [1, 3] | IC50 [2, 4] | IC50 [1, 5] | IC50 [2, 6] | Structure (SMILES) | inhibition at 10 µM ([1]; mean ± SEM (n ≥ 3)) | inhibition at 10 µM ([2]; mean ± SEM (n ≥ 3))
– | – | 3.37 µM | 4.07 µM | CC12CCC3C(C)(C1CCc1cocc12)C(O)C1(O)C(=O)OCC31C (centres unmarked) [Compound 1, 17-dehydroxysponalactone] | 91.4% | 90.3%
> 10 µM | > 10 µM | – | – | CC1=C(O)C(=O)CC2(C)C1CCC1(CO)c3cocc3CCC12 (centres unmarked) [Compound 6, 18-nor-3,17-dihydroxyspongia-3,13(16),14-trien-2-one] | 9.44% | 19.2%
– | – | 1.88 µM | 2.58 µM | O=c1cc(N2CCOCC2)oc2c(-c3ccccc3)cccc12 [LY294002, 2-(4-morpholinyl)-8-phenyl-1(4H)-benzopyran-4-one, reference compound] | 90.3% | 77.6%
